Laboratory results reported in the supplement of paper PMC11451515.

Experiments:
Conditions in all cases: 48 h
P12-Ichikawa [1] = assay: AUC of viability dose-response curve (% viability x log10 dose units); higher = less sensitive
Summary of the method: (§1)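 Seeding of medium-adapted leukemia cells was at 500 or 1000 cells/well in 1536-well plates, followed by 48 h at 37°C with library compounds in DMSO at 11 threefold doses from 47 μM to 0.79 nM. CellTiter-Glo One luminescence was normalised per plate to DMSO and cell-free wells and fitted as a four-parameter log-logistic function of log10 dose. Area under the curve was integrated by trapezoidal rule, with curves exceeding full viability scaled and curves failing quality control removed.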

NOMO1 [2] = assay: as above
Summary of the method: as §1

SEM cells [3] = assay: cell viability relative to DMSO control; higher = less cytotoxic
Summary of the method: (§2)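 Library compounds in DMSO were pin-dosed in an 11-point threefold series (47 μM to 0.79 nM) onto leukemia cells in 1536-well plates (5 μl). Plates held 500 cells/well of NOMO1 or SEM or 1000 cells/well of P12-Ichikawa, each adapted for at least four passages in each medium. Luminescence was read with CellTiter-Glo One after 48 h at 37°C. Viability means the per-plate percentage relative to DMSO wells, using cell-free wells as background.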

P12-Ichikawa [4] = assay: as above
Summary of the method: as §2

NOMO1 [5] = assay: as above
Summary of the method: as §2

SEM cells [6] = assay: AUC of viability dose-response curve (% viability x log10 dose units); higher = less sensitive
Summary of the method: as §1

c1ccc(CCCN2CCN(CCOC(c3ccccc3)c3ccccc3)CC2)cc1
AUC of viability dose-response curve
Conditions	HPLM + 10% dialyzed FBS	RPMI 5 mM glucose + 10% FBS	RPMI 5 mM glucose + 10% dialyzed FBS
NOMO1 [2]	434	409	405
P12-Ichikawa [1]	431	432	406

cell viability [%]
Conditions	NOMO1 [5]	P12-Ichikawa [4]	SEM cells [3]
HPLM + 10% dialyzed FBS, 0.000781 µM	91.4	89.2	27.6
HPLM + 10% dialyzed FBS, 0.00234 µM	95.1	90.8	98.3
HPLM + 10% dialyzed FBS, 0.00702 µM	101	104	99.1
HPLM + 10% dialyzed FBS, 0.0211 µM	100	95.5	103
HPLM + 10% dialyzed FBS, 0.0632 µM	85	99.2	97.9
HPLM + 10% dialyzed FBS, 0.19 µM	100	91.3	104
HPLM + 10% dialyzed FBS, 0.569 µM	92.9	89.7	87.4
HPLM + 10% dialyzed FBS, 1.71 µM	103	87.5	99.9
HPLM + 10% dialyzed FBS, 5.12 µM	83.1	91.6	87.1
HPLM + 10% dialyzed FBS, 15.4 µM	78.9	77.3	33.9
HPLM + 10% dialyzed FBS, 46.1 µM	53.9	67.3	44.6
RPMI 5 mM glucose + 10% FBS, 0.000781 µM	80.3	91.4	69.2
RPMI 5 mM glucose + 10% FBS, 0.00234 µM	83.3	97.1	106
RPMI 5 mM glucose + 10% FBS, 0.00702 µM	96	94.4	104
RPMI 5 mM glucose + 10% FBS, 0.0211 µM	99.5	94.5	98
RPMI 5 mM glucose + 10% FBS, 0.0632 µM	94.9	93.9	91.7
RPMI 5 mM glucose + 10% FBS, 0.19 µM	90.3	94	85.9
RPMI 5 mM glucose + 10% FBS, 0.569 µM	85.6	98.2	102
RPMI 5 mM glucose + 10% FBS, 1.71 µM	76.1	90.2	89
RPMI 5 mM glucose + 10% FBS, 5.12 µM	83.3	92.3	91
RPMI 5 mM glucose + 10% FBS, 15.4 µM	78	78.4	19.2
RPMI 5 mM glucose + 10% FBS, 46.1 µM	73.8	55	61.8
RPMI 5 mM glucose + 10% dialyzed FBS, 0.000781 µM	89.3	83.7	78.9
RPMI 5 mM glucose + 10% dialyzed FBS, 0.00234 µM	97.3	88.3	103
RPMI 5 mM glucose + 10% dialyzed FBS, 0.00702 µM	92.7	88	114
RPMI 5 mM glucose + 10% dialyzed FBS, 0.0211 µM	96.5	91.4	100
RPMI 5 mM glucose + 10% dialyzed FBS, 0.0632 µM	89.7	94.1	99.4
RPMI 5 mM glucose + 10% dialyzed FBS, 0.19 µM	92.5	85	96
RPMI 5 mM glucose + 10% dialyzed FBS, 0.569 µM	85.5	94.7	73
RPMI 5 mM glucose + 10% dialyzed FBS, 1.71 µM	86.2	87.1	96.5
RPMI 5 mM glucose + 10% dialyzed FBS, 5.12 µM	86.3	88.5	92.5
RPMI 5 mM glucose + 10% dialyzed FBS, 15.4 µM	66.8	75.2	23
RPMI 5 mM glucose + 10% dialyzed FBS, 46.1 µM	24.3	38.3	50.5

CNC(=O)c1c(-c2ccc(F)cc2)oc2cc(N(CCO)[S+](C)(=O)[O-])c(C3CC3)cc12
AUC of viability dose-response curve
Conditions	HPLM + 10% dialyzed FBS	RPMI 5 mM glucose + 10% FBS	RPMI 5 mM glucose + 10% dialyzed FBS
NOMO1 [2]	395	412	425
P12-Ichikawa [1]	382	407	404

cell viability [%], SEM cells [3]
Conditions	HPLM + 10% dialyzed FBS	RPMI 5 mM glucose + 10% FBS	RPMI 5 mM glucose + 10% dialyzed FBS
0.000781 µM	82.4	44.5	75.4
0.00234 µM	117	71.1	111
0.00702 µM	117	77.3	118
0.0211 µM	110	69.1	106
0.0632 µM	71.9	41.9	65.2
0.19 µM	51.8	26.8	46.8
0.569 µM	67.2	39.9	59.4
1.71 µM	51.2	31.5	48
5.12 µM	25.4	23.8	24.4
15.4 µM	14.3	5.58	10.2
46.1 µM	3.38	1.22	1

CCC[C@H](NC(=O)[C@@H]1[C@H]2CCC[C@H]2CN1C(=O)[C@@H](NC(=O)[C@@H](NC(=O)c1cnccn1)C1CCCCC1)C(C)(C)C)C(=O)C(=O)NC1CC1
AUC of viability dose-response curve
Conditions	NOMO1 [2]	P12-Ichikawa [1]	SEM cells [6]
HPLM + 10% dialyzed FBS	461	474	454
RPMI 5 mM glucose + 10% FBS	474	473	469
RPMI 5 mM glucose + 10% dialyzed FBS	472	476	470

SEM cells [3], HPLM + 10% dialyzed FBS
Conditions	cell viability [%]
0.000781 µM	106
0.00234 µM	99.8
0.00702 µM	106
0.0211 µM	106
0.0632 µM	111
0.19 µM	118
0.569 µM	118
1.71 µM	119
5.12 µM	127
15.4 µM	111
46.1 µM	116

CC(=O)O[C@@]1(CC[C@H]2[C@@H]3\C=C(Cl)/C4=C/C(=O)[C@@H]5C[C@@H]5[C@]4(C)[C@H]3CC[C@]12C)C(C)=O
AUC of viability dose-response curve
Conditions	HPLM + 10% dialyzed FBS	RPMI 5 mM glucose + 10% FBS	RPMI 5 mM glucose + 10% dialyzed FBS
NOMO1 [2]	364	322	360
SEM cells [6]	464	450	442

cell viability [%]
Conditions	NOMO1 [5]	SEM cells [3]
HPLM + 10% dialyzed FBS, 0.000781 µM	95.1	111
HPLM + 10% dialyzed FBS, 0.00234 µM	124	120
HPLM + 10% dialyzed FBS, 0.00702 µM	140	126
HPLM + 10% dialyzed FBS, 0.0211 µM	137	125
HPLM + 10% dialyzed FBS, 0.0632 µM	133	131
HPLM + 10% dialyzed FBS, 0.19 µM	135	130
HPLM + 10% dialyzed FBS, 0.569 µM	114	128
HPLM + 10% dialyzed FBS, 1.71 µM	66.4	131
HPLM + 10% dialyzed FBS, 5.12 µM	36	136
HPLM + 10% dialyzed FBS, 15.4 µM	38.5	134
HPLM + 10% dialyzed FBS, 46.1 µM	34.5	127
RPMI 5 mM glucose + 10% FBS, 0.000781 µM	–	115
RPMI 5 mM glucose + 10% FBS, 0.00234 µM	–	115
RPMI 5 mM glucose + 10% FBS, 0.00702 µM	–	126
RPMI 5 mM glucose + 10% FBS, 0.0211 µM	–	119
RPMI 5 mM glucose + 10% FBS, 0.0632 µM	–	118
RPMI 5 mM glucose + 10% FBS, 0.19 µM	–	144
RPMI 5 mM glucose + 10% FBS, 0.569 µM	–	128
RPMI 5 mM glucose + 10% FBS, 1.71 µM	–	116
RPMI 5 mM glucose + 10% FBS, 5.12 µM	–	120
RPMI 5 mM glucose + 10% FBS, 15.4 µM	–	135
RPMI 5 mM glucose + 10% FBS, 46.1 µM	–	135

CN(C)C(=N)NC(=N)N
AUC of viability dose-response curve
Conditions	NOMO1 [2]	P12-Ichikawa [1]	SEM cells [6]
HPLM + 10% dialyzed FBS	437	442	436
RPMI 5 mM glucose + 10% FBS	446	460	393
RPMI 5 mM glucose + 10% dialyzed FBS	451	457	426

SEM cells [3], RPMI 5 mM glucose + 10% FBS
Conditions	cell viability [%]
0.000781 µM	110
0.00234 µM	122
0.00702 µM	116
0.0211 µM	132
0.0632 µM	152
0.19 µM	154
0.569 µM	156
1.71 µM	110
5.12 µM	62.4
15.4 µM	56.6
46.1 µM	17.8

COCCOc1ccc2c(c1)ncn2-c1ccc2cccc(N3CCC(N)CC3)c2n1
AUC of viability dose-response curve
Conditions	HPLM + 10% dialyzed FBS	RPMI 5 mM glucose + 10% FBS	RPMI 5 mM glucose + 10% dialyzed FBS
NOMO1 [2]	394	418	405
P12-Ichikawa [1]	377	405	394

cell viability [%], SEM cells [3]
Conditions	HPLM + 10% dialyzed FBS	RPMI 5 mM glucose + 10% FBS	RPMI 5 mM glucose + 10% dialyzed FBS
0.000781 µM	83.8	99.7	112
0.00234 µM	77.9	115	101
0.00702 µM	70.3	109	72.2
0.0211 µM	59.8	67.6	65.2
0.0632 µM	52.5	58.7	51.3
0.19 µM	51.6	47.8	46.1
0.569 µM	46.6	50.9	44.6
1.71 µM	42.5	44.1	41.8
5.12 µM	21.7	25.8	23.7
15.4 µM	12.8	12.3	13.1
46.1 µM	4.13	3.44	3.97
